Laboratory results: patent US20250189514A1 (priority 2022, published 2025)
Read-outs that look alike come from different tables or passages of the source. Where no end group is shown, it is not given here.

Key:
α6/3β2β3 nAChR [1] = format: cell-based, human
α6/3β2β3 nAChR [2] = test system: α6/3β2β3 nAChR
Method: In one embodiment, FLIPR assay is used to identify agonists of 6β2β3 nAChR (including chimeric α6/3β2β3 nAChR as described above) mediated calcium flux. In this assay, the recombinant cells are incubated with a calcium sensitive dye (such as Ca5), exposed to a test compound, and calcium flux is imaged by FLIPR^TETRA.
• Spin down cells at 300×G for 5 min, aspirate supernatant, and resuspend in 10 ml plating medium. • Seed 25,000 cells/well in 50 μL (5×10^5cells/mL). • Incubate plates for 24 hours at 30° C. with 5% CO2 in a humidified atmosphere. Day 4 FLPR Assay • Wash plate with plate washer (4 washes x 100 μL/wash) using compound dilution buffer, leaving 25 μl in each well. • Add 25 μl of 2× Ca5 dye to each well. • Incubate at room temperature for 1 hr. • Wash plate with plate washer (4 washes x 100 μL/wash) using compound dilution buffer, leaving 25 μL in each well.
• Transfer plates to FLIPR for compound addition. Single addition plate of 2× agonist (25 μL). Control wells for agonists will be in column 23 and 24. […] Negative control wells received buffer+vehicle (25 μL). Functional Expression of α6β2β3 nAChR

CCN1C[C@]2(COC(=O)c3ccccc3N3C(=O)C[C@H](C)C3=O)CC[C@H](OC)[C@@]34[C@@H]5C[C@H]6[C@H](OC)[C@@H]5[C@](O)(C[C@@H]6OC)[C@](O)([C@@H](OC)[C@H]23)[C@@H]14 [MLA]
effect on nicotine-evoked calcium flux (FLIPR signal) (α6/3β2β3 nAChR [1]): decreases the nicotine-evoked calcium flux in a dose-dependent manner

CN1CCCC1c1cccnc1 (stereo not shown) [nicotine]
nicotine EC80 (α6/3β2β3 nAChR [2]; 2nd addition in concentration response curve experiment): 236 nm | EC80 nicotine (α6/3β2β3 nAChR [2]; concentration used as agonist challenge in antagonist protocol): 236 nM

CO[C@H]1CC=C2CCN3CCC4=C(CC(=O)OC4)[C@]23C1 [DHbE]
IC100 DHBe (α6/3β2β3 nAChR [1]): 10 µM | effect on nicotine-evoked calcium flux (FLIPR signal) (α6/3β2β3 nAChR [1]): decreases the nicotine-evoked calcium flux in a dose-dependent manner

CNC1(C)C2CCC(C2)C1(C)C (stereo not shown) [mecamylamine]
effect on nicotine-evoked calcium flux (FLIPR signal) (α6/3β2β3 nAChR [1]; transfected HEK293T cells incubated at 30° C. for 24-48 hour, antagonist at various concentration 3 min, then nicotine EC80 3.5 min, FIGS. 2A-2D): decreases the nicotine-evoked calcium flux in a dose-dependent manner

α-conotoxin MII (GCCSNPVCHLEHSNLC; ends and bridges not checked; cysteine pairing not given here; UniProt P56636 49-64, looked up)
effect on nicotine-evoked calcium flux (FLIPR signal) (α6/3β2β3 nAChR [1]): decreases the nicotine-evoked calcium flux in a dose-dependent manner
